The values below come from patent publication US12472193B2, “Methods and compositions for treating and preventing respiratory related diseases and conditions with xylitol-headgroup lipid analogs” (National Jewish Health, priority 2017, dated 2025).

Entries after “also recorded” stand apart in the source; their conditions may differ.

For one experiment, the system named is RSV. The experiment is described as follows: Western blot analysis of phospholipid interference with RSV binding to HEp2 cells. In kind it is cell-based, human RSV A2 strain. The conditions noted are these: 50 μg/mL lipid, MOI 2.5, 2 hr. As to the method:
HEp2 cells were plated in a 48-well plate at a density of 1×10^5 per well, 48-hours prior to performing binding studies. A multiplicity of infection (MOI) of 2.5 was used and conditions of a control with no RSV, RSV alone and RSV plus 50 μg/mL of selected lipids were added to cells for a 2-hour incubation at 18° C. This lower temperature was used so that RSV would adsorb to the cell surface with minimal endocytosis. After binding, cells were washed 4 times with cold PBS to remove any unattached virus. 80 μL of SDS-PAGE loading buffer (sample buffer+protease inhibitor+DTT) was added to each well and the plate was set in boiling water for 1 minute to lyse cells and solubilize proteins. Cell lysates were recovered by scraping and pipteing and stored at −20° C. Subsequently, thawed lysates were boiled for 5 min, and proteins were resolved on 8-16% gradient Tris-SDS-polyacrylamide gels. The separated proteins were transferred to nitrocellulose membranes and subsequently incubated in blocking buffer containing 20 mM Tris-HCl buffer (pH 7.6), 137 mM NaCl, 0.1% Tween 20, and 5% nonfat milk for 1 hour. After blocking, primary RSV antibody conjugated to HRP was diluted 1:500 in blocking solution, added to the membrane and incubated overnight at 4° C. The membranes were washed with TBS containing 0.1% Tween for 30 min, replacing the buffer every 10 min. The immunoreactive protein was detected using coumaric acid and luminol reagents and exposed to film. Developed films were scanned and Image J software was used for protein quantification. Beta-Actin was used a control for amount of protein loaded.
Because binding of lipid to RSV in a biochemical assay was not a good predictor of antiviral activity, PX lipids were tested for activity preventing viral attachment to the surface of cells. HEp2 cells were plated in a 48-well plate at a density of 1×10^5 per well, 48 hours prior to viral adsorption. RSV was added to cells at multiplicity of infection (MOI) 2.5 in the absence or presence of 50 μg/mL of select xylitol lipids. […] The moderately effective antiviral, DPPX was selected and the ineffective antiviral, 14:0 DEPX was selected. Viral adsorption to cells was performed at 18° C. to minimize endocytosis. RSV was incubated with HEp2 cells for 2 hours, rotating the plate every 30 minutes. Cells were washed with cold PBS to remove unbound virus and cells were lysed and collected. Cell lysates were electrophoresed on an SDS-PAGE gel, and transferred to nitrocellulose membrane. The RSV G protein was detected with antibody and Beta-actin was used as a protein loading control. The results are summarized and quantified in FIGS. 9A and 9B. In more detail, monolayers of HEp2 cells were incubated with RSV at a stoichiometry of 2.5 infectious particles/cell, at 0° C., to prevent endocytosis of virions. Following a 2 hr incubation the monolayers were washed three times with cold saline to remove unbound virus, and then the cells were harvested in a denaturing solution. The cell extracts were subjected to electrophoresis under reducing and denaturing conditions and the separated proteins were transferred to nitrocellulose. Viral proteins were detected by immunoblotting with polyclonal anti-RSV antibody and enhanced chemiluminescence. The immunoreactive bands were normalized using actin immunoblots. The immunoreactive viral proteins were quantified using Image J software. […] In contrast, POPG (PG) inhibits viral attachment by ˜85%, and the xylitol phospholipids 14:0 DEPX, POPX, 16:1 DPPX AND 18:1 DEPX inhibit viral attachment in the range of 80-90%.

A further experiment has as its target T1, TLR 3 ectodomain (Homo sapiens, UniProt O15455).
T1 construct: purchased R&D system
T1 sequence (O15455 24-704 limits assumed): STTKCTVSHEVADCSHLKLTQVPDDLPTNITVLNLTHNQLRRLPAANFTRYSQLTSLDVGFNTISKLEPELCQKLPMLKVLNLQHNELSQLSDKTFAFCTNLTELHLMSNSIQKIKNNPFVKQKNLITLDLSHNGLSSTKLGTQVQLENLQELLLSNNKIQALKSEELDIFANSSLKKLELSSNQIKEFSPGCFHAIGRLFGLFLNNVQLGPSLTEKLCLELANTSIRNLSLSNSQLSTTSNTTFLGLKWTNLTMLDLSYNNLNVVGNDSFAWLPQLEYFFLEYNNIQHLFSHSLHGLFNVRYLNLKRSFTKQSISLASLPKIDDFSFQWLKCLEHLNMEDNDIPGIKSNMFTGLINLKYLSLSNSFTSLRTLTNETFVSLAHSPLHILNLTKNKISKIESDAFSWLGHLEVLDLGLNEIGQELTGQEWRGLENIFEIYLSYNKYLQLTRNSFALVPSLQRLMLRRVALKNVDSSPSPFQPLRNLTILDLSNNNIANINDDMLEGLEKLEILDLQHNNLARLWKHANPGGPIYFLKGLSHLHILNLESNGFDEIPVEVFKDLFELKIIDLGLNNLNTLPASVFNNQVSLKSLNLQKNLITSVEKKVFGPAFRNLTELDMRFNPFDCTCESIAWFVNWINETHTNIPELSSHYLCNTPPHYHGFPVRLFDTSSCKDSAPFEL
The experiment is described as follows: Binding of TLR 3 ectodomain to solid phase phospholipid. The conditions noted are these: for binding to TLR 3 ectodomain: 0.625 nmol lipid per well, 6 μg/mL TLR 3 protein; for concentration-dependent binding of TLR 3: binding curves. On the procedure: Lipids were dried under a stream of nitrogen and resuspended i 100% ethanol, and 0.625 nmol was added in a 40 μL volume to each well of a half-area, 96-well plate. The solvent was evaporated under warm air for 90 minutes. 120 μL of blocking solution (150 mM NaCl, 20 mM sodium acetate pH 5.5 containing 3% BSA w/v) was added to each well and incubated for 1 hour at room temperature. Wells were then washed with (150 mM NaCl, 20 mM sodium acetate pH 5.5) followed by the addition of 40 μL of 6 μg/mL TLR 3 ectodomain in blocking solution to each well and the plate was incubated at 37° C. for 1 hour. The wells were washed 3 times and 40 μL of human TLR 3 primary antibody, diluted 1:500, was added and incubated overnight at 4° C. After washing out the primary antibody with (150 mM NaCl, 20 mM Tris pH 7.4), a secondary (rabbit anti-goat) antibody conjugated to horseradish peroxidase (HRP), diluted 1:1000, was added in 40 μL aliquots to each well and incubated at 37° C. for 1 hour. After washing, the peroxidase activity was detected with the substrate o-phenylenediamine and the absorbance read at 490 nm to detect degree of binding.
Solid phase lipid binding to fluid phase TLR 3 ectodomain was examined as a potential explanation for the differences in activity. Lipids were dried under a stream of nitrogen and resuspended in 100% ethanol. 0.625 nmol of lipid was plated per well in a 96-well plate and dried for 90 minutes. BSA was used to block non-specific binding and then TLR 3 protein was added to each well at 6 μg/mL and incubated at 37° C. for one hour. After washing out unbound protein, primary antibody was added for detection of TLR 3 and incubated overnight at 4° C. The following day secondary antibody conjugated to HRP was added to the wells and the peroxidase reaction activated by o-phenylenediamine. The absorbance was read at 490 nm to detect binding.

As to `CCCCCCCCCCCCCCOC[C@H](COP(=O)(O)OCC(O)C(O)C(O)CO)OCCCCCCCCCCCCCC` (mixture of isomers) [14:0 DEPX, sn-1-O-myristyl, sn-2-O-myristyl sn-3 glycerol phosphoxylitol], the “inhibition of RSV attachment to HEp2 cells” value (from here on “inhibition of RSV attachment”) in the experiment on RSV is given as “appears to prevent viral binding to cells; also recorded: prevented RSV from binding to the cell surface”. The “binding to TLR 3 ectodomain” value at TLR 3 ectodomain is “all xylitol analogs except 14:0 DEPX demonstrated specific binding”.
On to `CCCCCCCC/C=C\CCCCCCCC(=O)O[C@H](COC(=O)CCCCCCCCCCCCCCC)COP(=O)([O-])OCC[N+](C)(C)C` [POPC, 1-palmitoyl-2-oleoyl-sn-glycero-3-phosphocholine, reference compound], for which the “inhibition of RSV attachment” value in the experiment on RSV is “not inhibited”.
For the compound `CCCCCCCC/C=C\CCCCCCCC(=O)O[C@H](COC(=O)CCCCCCCCCCCCCCC)COP(=O)(O)OCC(O)CO` (stereo partly drawn) [POPG, palmitoyl-oleoyl-phosphatidylglycerol, reference compound], the “inhibition of viral attachment to HEp2 cells” value with RSV is listed as approximately 85%. For the same compound, on TLR 3 ectodomain, the “binding to TLR 3 ectodomain” value is on record as “specific binding to TLR 3 ectodomain” and the “concentration-dependent binding of TLR 3” value was “significantly different from POPC”.
Take `CCCCCCCCC=CCCCCCCCC(=O)OCC(COP(=O)(O)OCC(O)C(O)C(O)CO)OC(=O)CCCCCCCC=CCCCCCCCC` (mixture of isomers) [DOPX, sn-1-oleoyl, sn-2-oleoyl sn-3 glycerol phosphoxylitol]: in the experiment on RSV, the “inhibition of RSV attachment” value is recorded as “inhibit attachment”.
The same measure, in the same setting: the result for `CCCCCCCC/C=C\CCCCCCCC(=O)O[C@H](COC(=O)CCCCCCCCCCCCCCC)COP(=O)(O)OCC(O)C(O)C(O)CO` (stereo partly drawn) [POPX, sn-1-palmitoyl, sn-2-oleoyly sn-3 glycerol phosphoxylitol] reads “prevented RSV attachment to HEp2 cells”.
Take `CCCCCCCCC=CCCCCCCCCOCC(COP(=O)(O)OCC(O)C(O)C(O)CO)OCCCCCCCCC=CCCCCCCCC` (mixture of isomers) [18:1 DEPX, sn-1-O-octadecenyl, sn-2-O-octadecenyl sn-3 glycerol phosphoxylitol]: the “inhibition of RSV attachment” value with RSV was “inhibit attachment; also recorded: prevented RSV attachment to HEp2 cells”. For the same compound, on TLR 3 ectodomain, the “binding to TLR 3 ectodomain” value is “not statistically different from POPG” and the “concentration-dependent binding of TLR 3” value is listed as “significantly different from POPC”.
In the case of `CCCCCCCCCCCCCCCC(=O)OCC(COP(=O)(O)OCC(O)C(O)C(O)CO)OC(=O)CCCCCCCCCCCCCCC` (stereo not drawn) [DPPX, sn-1-palmitoyl, sn-2-palmitoyl sn-3 glycerol phosphoxylitol], the “inhibition of RSV attachment” value in the experiment on RSV is listed as “not inhibited; also recorded: did not”.
`CCCCCCC=CCCCCCCCC(=O)OCC(COP(=O)(O)OCC(O)C(O)C(O)CO)OC(=O)CCCCCCCC=CCCCCCC` (mixture of isomers) [16:1 DPPX, sn-1-palmitoleoyl, sn-2-palmitoleoyl sn-3 glycerol phosphoxylitol]: in the experiment on RSV, the “inhibition of RSV attachment” value is listed as “prevented RSV attachment to HEp2 cells”. The “concentration-dependent binding of TLR 3” value at TLR 3 ectodomain was “significantly different from POPC”.
With `CCCCCC=CCC=CCCCCCCCC(=O)OCC(COP(=O)(O)OCC(O)C(O)C(O)CO)OC(=O)CCCCCCCC=CCC=CCCCCC` (mixture of isomers) [18:2 DLPX, sn-1-linoleoyl, sn-2-linoleoyl sn-3 glycerol phosphoxylitol], the “binding to TLR 3 ectodomain” value on TLR 3 ectodomain is “not statistically different from POPG”.
